Data reported in article PMC13379085 (PLOS Neglected Tropical Diseases, 2026).

Columns and labels:
lysozyme = biological target: T1, lysozyme (Homo sapiens, UniProt P61626); assay: Thermal proteome profiling (TPP) in Leishmania infected macrophage lysate; assay type: binding; parameters: endogenous in cells; host or cells: PMA-differentiated THP-1 macrophages infected with L. mexicana (lysate); settings: 100 µM 197 in L. mexicana infected THP-1 lysate
T1 sequence (P61626 19-148): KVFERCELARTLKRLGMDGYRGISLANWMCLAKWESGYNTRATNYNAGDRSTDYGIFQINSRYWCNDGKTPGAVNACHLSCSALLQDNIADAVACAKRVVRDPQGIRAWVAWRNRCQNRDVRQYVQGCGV
Method: To generate cell lysate, ten million THP-1 cells were plated overnight in a 10 cm dish, then differentiated with 150 nM phorbol 12-myristate 13-acetate (PMA) for 72 hours. The resulting macrophages were infected with L. mexicana promastigotes at a multiplicity of infection of 10 and incubated for 18 hours. After infection, cells were washed three times with PBS to remove extracellular promastigotes. Cells were then collected by scraping and pelleted with centrifugation. The cell pellet was resuspended in phosphate buffered saline and subjected to five freeze-thaw cycles. Samples were centrifuged 14,000g x 10 minutes to remove cellular debris. Protein concentration of supernatant was determined by BCA assay and cell lysate was stored at -80 ° C until further use.
The cell lysate was divided into two portions. One portion was spiked with 197 in DMSO to generate the ‘with ligand’ sample; and the other portion was spiked with DMSO to generate the ‘without ligand’ sample. The final concentration of 197 in the ‘with ligand’ sample was 100 µM, and both the without and with ligand samples contained 1% DMSO. The with and without samples were each subjected five replicate one-pot TPP analyses like that previously described. […]

[1] = tested on: Extracellular L. donovani promastigotes; assay: Resazurin viability assay of extracellular L. donovani promastigotes; assay type: cell-based, Leishmania donovani; settings: for 53 strain not specified
Method: (§1) The effect of compounds on extracellular promastigotes was evaluated using a resazurin-based assay as described previously. In short, late log phase Leishmania promastigotes were seeded in a 96 well plate at 1 x 10^5 parasites per well and treated with drugs (0.5 – 200 µM) for 72 hours at 25°C. Ten microliters of Resazurin (0.02% w/v) were added to the treated parasites to achieve a final concentration of 0.002% w/v and incubated for 24 hours. Viability of the promastigotes was assessed by fluorescence (excitation 544 nm, emission 590 nm, SpectraMax M2, Molecular Devices).

[2] = tested on: Extracellular L. mexicana promastigotes; assay: Resazurin viability assay of extracellular L. mexicana promastigotes; assay type: cell-based, Leishmania mexicana
Method: as §1

## O=C(CNCc1cccc(F)c1)Nc1ccc(-n2cc(C(F)(F)F)nc2-c2ccc(-c3ccc(C(F)(F)F)cc3)cc2)cc1 [Compound 197]
lysozyme
  TPP z-score for lysozyme: 4.32
[1]
  direct effects on extracellular promastigote viability: some direct reduction
[2]
  effect on L. mexicana extracellular promastigote viability: no effect
[2]; Leishmania mexicana, 72-hour incubation
  MIC50: > 200 µM
